Patent US20250281610A1, “P2RY2 ACTIVITY MODULATORS” (Deutsches Krebsforschungszentrum Stiftung des öffentlichen …, priority 2022, published 2025)

Tests used:
[1] = tested on: MART-1-specific TCR transduced T cells cultured with MART-1-epitope transduced BxPC3 cells; test: T cell activation markers in co-culture of MART-1-specific TCR-T cells with MART-1+ BxPC3 cells; format: cell-based, human; conditions: single agent: 5 μM AR-C, 10 μg/ml atezolizumab or 10 μg/ml durvalumab, 6-24 hours, CD8+ MART-1-specific TCR+ population (FIG. 10)
Text: FIG. 10. […] Untreated cells served as the control.
(§1) MART-1 specific T cells were generated as described (Mezzadra et al., Nature 549, 106-110 (2017); Jorritsma et al., Blood 110 (10): 3564-3572. (2007)). To generate CD33-specific chimeric antigen receptor (CAR) T cells, a CD33Hul95-CD28Z CAR (described in WO 2019/178382) cassette was cloned into a retroviral vector, and the resulting virus was used to transduce T cells as described (Mezzadra et al., Nature 549, 106-110 (2017); Jorritsma et al., Blood 110 (10): 3564-3572. (2007)).
MART1-specific CD8+ T cells and MART1 epitope-expressing cancer cells were mixed at a ratio of 1:16 to 1:4. […] T cell activation was assessed by surface staining with anti-CD137-BV421 (4-1BB, Biolegend), anti-CD69-APC/Fire™ 750 (FN50, Biolegend), anti-CD25-AF700 (BC96, Biolegend) antibodies and intracellular staining with anti-IL-2-PE/Cy7 (MQ1-17H12, Biolegend), anti-IFN-7-BV421 (4S.B3, Biolegend), anti-TNF-α-BV785 (MAb11, Biolegend) antibodies, followed by flow cytometry analysis. For intracellular staining, brefeldin A (Biolegend) was added to the cell culture medium 4 h before cells were harvested. The viability of cancer cells that grow in suspension including THP-1 cells was assessed by flow cytometry-based absolute cell counting using AccuCount beads (Spherotech). For adherent cancer cells including BxPC3 and MCF7, the cell viability was quantified using CellTiter-Blue Cell Viability Assay (Promega).

BxPC3 cells = test: Viability of BxPC3 cells in co-culture with MART-1-specific TCR-T cells (CellTiter-Blue); format: cell-based, human; conditions: single agent: 5 μM AR-C, 10 μg/ml atezolizumab or 10 μg/ml durvalumab, 6-24 hours (FIG. 11)
Text: FIG. 11. […] Untreated cells served as the control.
as §1
MART1-specific CD8+ T cells and MART1 epitope-expressing cancer cells were mixed at a ratio of 1:16 to 1:4. Next, cells were centrifugated at 1,600 g for 3 min and incubated at 37° C. and 5% CO2 for 12-72 hours. T cell activation was assessed by surface staining with anti-CD137-BV421 (4-1BB, Biolegend), anti-CD69-APC/Fire™ 750 (FN50, Biolegend), anti-CD25-AF700 (BC96, Biolegend) antibodies and intracellular staining with anti-IL-2-PE/Cy7 (MQ1-17H12, Biolegend), anti-IFN-7-BV421 (4S.B3, Biolegend), anti-TNF-α-BV785 (MAb11, Biolegend) antibodies, followed by flow cytometry analysis. For intracellular staining, brefeldin A (Biolegend) was added to the cell culture medium 4 h before cells were harvested. The viability of cancer cells that grow in suspension including THP-1 cells was assessed by flow cytometry-based absolute cell counting using AccuCount beads (Spherotech). For adherent cancer cells including BxPC3 and MCF7, the cell viability was quantified using CellTiter-Blue Cell Viability Assay (Promega).

durvalumab: Blocking antibody of the PD-L1-PD-1 immune checkpoint
expression of CD25 on T cells [1]: elevated
expression of CD69 on T cells [1]: elevated
expression of CD137 on T cells [1]: elevated
viability of BxPC3 cells (BxPC3 cells): reduced
